Molecules are shown by their SMILES.

Chain of TNFα (P01375 77-233 limits assumed): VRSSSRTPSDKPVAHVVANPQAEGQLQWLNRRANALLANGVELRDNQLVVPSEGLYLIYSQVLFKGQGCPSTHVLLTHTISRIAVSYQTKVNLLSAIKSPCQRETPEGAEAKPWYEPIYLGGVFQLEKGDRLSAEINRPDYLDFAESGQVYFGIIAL

The first assay has as its target TNFα (Homo sapiens, UniProt P01375). The experiment in a line: TNF induced HEK-Blue assay (NF-kB-driven secreted alkaline phosphatase reporter). The assay is classed as cell-based. The note with it: TNF induced HEK-Blue assay IC50 value, TNFα 0.5 ng/mL, HEK-Blue-CD40L cells, 18 h. In outline: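 HEK-Blue-CD40L cells (NF-kB-driven SEAP reporter), 20,000/well, added after 30 min pre-incubation of compound (0.004–25 μM final) with TNFα 0.5 ng/mL final at 37 °C; 18 h incubation. SEAP read with QUANTI-Blue at 620 nm; IC50 from 4-parameter logistic fit, normalized to unstimulated and stimulated DMSO controls.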
On to `C[C@@H](Nc1c(Cl)cnc2ccc(-c3cnc(N4CCN(CC(=O)O)CC4)nc3)cc12)c1ccccc1F` [Example 285, (R)-2-(4-(5-(3-chloro-4-((1-(2-fluorophenyl)ethyl)amino)quinolin-6-yl)pyrimidin-2-yl)piperazin-1-yl)acetic acid], for which the IC50 is less than 1 µM.

The assay is the same for the next values; noted with them: TNFα 0.5 ng/mL, HEK-Blue-CD40L cells, 18 h; read-out: TNF induced HEK-Blue assay IC50 value.
Take `Cc1nc2ccc(-c3cnc(C(C)(C)O)nc3)cc2c(N[C@H](C)c2cc(C3=CCCC3)ccc2F)c1Cl` [Example 333, (R)-2-(5-(3-chloro-4-((1-(5-(cyclopent-1-en-1-yl)-2-fluorophenyl)ethyl)amino)-2-methylquinolin-6-yl)pyrimidin-2-yl)propan-2-ol]: the IC50 is less than 1 µM. Same read-out and setting: next, `CC(C)(O)c1ncc(-c2ccc3ncc(Cl)c(NCc4ccc(OC(F)F)cc4)c3c2)cn1` [Example 148, 2-(5-(3-chloro-4-((4-(difluoromethoxy)benzyl)amino)quinolin-6-yl)pyrimidin-2-yl)propan-2-ol]: 1 to 10 µM. On the same count and under the same terms, next, `Cc1nc2cc(F)c(-c3cnc(C(C)(C)O)nc3)nc2c(N[C@@H](c2cc(CO)ccc2F)C(F)F)c1Cl` [Example 496, (S)-2-(5-(7-chloro-8-((2,2-difluoro-1-(2-fluoro-5-(hydroxymethyl)phenyl)ethyl)amino)-3-fluoro-6-methyl-1,5-naphthyridin-2-yl)pyrimidin-2-yl)propan-2-ol]: less than 1 µM; `CC(Nc1c(Cl)cnc2ccc(-c3ccc(C(C)(C)O)cc3)cc12)c1cnco1` (racemic) [Example 203, 2-(4-(3-chloro-4-((1-(oxazol-5-yl)ethyl)amino)quinolin-6-yl)phenyl)propan-2-ol]: less than 1 µM. The same measure, in the same setting: under `C[C@@H](Nc1c(Cl)cnc2ccccc12)c1cc(-c2ccccc2N)ccc1F` [Example 547, (R)—N-(1-(2′-amino-4-fluoro-[1,1′-biphenyl]-3-yl)ethyl)-3-chloroquinolin-4-amine] stands 1 to 10 µM; under `C[C@@H](Nc1c(Cl)cnc2ccccc12)c1cc(-c2cnc3[nH]ccc3c2)ccc1F` [Example 537, (R)-3-chloro-N-(1-(2-fluoro-5-(1H-pyrrolo[2,3-b]pyridin-5-yl)phenyl)ethyl)quinolin-4-amine], less than 1 µM; under `Cc1nc2ccc(-c3cnc(N4CCN(CC(=O)O)CC4)nc3)cc2c(N[C@H](C)c2cc(-c3cn[nH]c3)ccc2F)c1Cl` [Example 342, (R)-2-(4-(5-(3-chloro-4-((1-(2-fluoro-5-(1H-pyrazol-4-yl)phenyl)ethyl)amino)-2-methylquinolin-6-yl)pyrimidin-2-yl)piperazin-1-yl)acetic acid], less than 1 µM. As for `CNc1ncc(-c2ccc3ncc(Cl)c(N[C@H](C)c4ccccc4F)c3c2)cn1` [Example 17, (R)-3-chloro-N-(1-(2-fluorophenyl)ethyl)-6-(2-(methylamino)pyrimidin-5-yl)quinolin-4-amine], the IC50 is 10 to 25 µM. Still for that read-out and setting: under `C[C@@H](Nc1c(Cl)cnc2ccc(-c3cnc(C(C)(C)O)nc3)cc12)c1cc(-c2c[nH]nn2)ccc1F` [Example 419, (R)-2-(5-(3-chloro-4-((1-(2-fluoro-5-(1H-1,2,3-triazol-4-yl)phenyl)ethyl)amino)quinolin-6-yl)pyrimidin-2-yl)propan-2-ol] stands less than 1 µM; under `Cc1nc2ccc(-c3cnc(C(C)(C)O)nc3)cc2c(N[C@@H](c2cc(C#N)ccc2F)C(F)F)c1Cl` [Example 380, (S)-3-(1-((3-chloro-6-(2-(2-hydroxypropan-2-yl)pyrimidin-5-yl)-2-methylquinolin-4-yl)amino)-2,2-difluoroethyl)-4-fluorobenzonitrile], less than 1 µM; under `CC(Nc1c(Cl)cnc2cc(F)c(-c3ccc(C(O)C4CC4)cc3)cc12)c1ccccc1F` (centres unmarked) [Example 263, (4-(3-chloro-7-fluoro-4-((1-(2-fluorophenyl)ethyl)amino)quinolin-6-yl)phenyl)(cyclopropyl)methanol], 1 to 10 µM.

Regarding `Fc1ccc(Br)cc1[C@H](Nc1c(Cl)cnc2ccccc12)C(F)F` [Example 509, (S)—N-(1-(5-bromo-2-fluorophenyl)-2,2-difluoroethyl)-3-chloroquinolin-4-amine], the half-inhibitory concentration (IC50) was 1 to 10 µM. Still for that read-out and setting: next, `C[C@H](Nc1c(Cl)cnc2cnc(-c3cnc(N4CCN(CC(=O)O)CC4)nc3)cc12)c1ccccc1F` (single isomer, unassigned) [Example 236]: 10 to 25 µM. Consider `CC(Nc1c(Cl)cnc2cc(F)c(-c3cnc(N4CCN(C(=O)[C@@H](N)CO)CC4)nc3)cc12)c1ccccc1F` (single isomer, unassigned) [Example 604], for which the IC50 is less than 1 µM. On the same count and under the same terms, next, `CC(Nc1c(Cl)cnc2c(F)cc(-c3cnc(C(C)(C)O)nc3)cc12)c1cc(Br)ccc1F` (single isomer, unassigned) [Example 612, 2-(5-(4-((1-(5-bromo-2-fluorophenyl)ethyl)amino)-3-chloro-8-fluoroquinolin-6-yl)pyrimidin-2-yl)propan-2-ol]: less than 1 µM. On the same count and under the same terms, under `CCN(Cc1c(Cl)cnc2ccc(-c3cnc(C(C)(C)O)nc3)cc12)c1ccccc1` [Example 66, 2-(5-(3-chloro-4-((ethyl(phenyl)amino)methyl)quinolin-6-yl)pyrimidin-2-yl)propan-2-ol] stands 1 to 10 µM; under `Cc1ccc(C)c(Nc2c(C)c(C)nc3ccc(-c4cnc(C(C)(C)O)nc4)cc23)c1` [Example 184, 2-(5-(4-((2,5-dimethylphenyl)amino)-2,3-dimethylquinolin-6-yl)pyrimidin-2-yl)propan-2-ol], less than 1 µM; under `COCC(C)(O)c1ncc(-c2cc3c(NC(C)c4ccccc4F)c(Cl)cnc3cc2F)cn1` (centres unmarked) [Example 292, 2-(5-(3-chloro-7-fluoro-4-((1-(2-fluorophenyl)ethyl)amino)quinolin-6-yl)pyrimidin-2-yl)-1-methoxypropan-2-ol], less than 1 µM. `C[C@@H](Nc1c(Cl)cnc2ccccc12)c1cc(-c2cncc(C#N)c2)ccc1F` [Example 541, (R)-5-(3-(1-((3-chloroquinolin-4-yl)amino)ethyl)-4-fluorophenyl)nicotinonitrile]: the 50% inhibitory concentration (IC50) lay in the range of 1 to 10 µM. Still for that read-out and setting: next, `C[C@@H](Nc1c(Cl)cnc2cc(F)c(-c3cnc(C(C)(C)O)nc3)nc12)c1cccc(CO)c1` [Example 576, (R)-2-(5-(7-chloro-3-fluoro-8-((1-(3-(hydroxymethyl)phenyl)ethyl)amino)-1,5-naphthyridin-2-yl)pyrimidin-2-yl)propan-2-ol]: less than 1 µM; `Cc1nc2ccc(-c3cnc(C(C)(C)O)nc3)cc2c(C(O)C(C)CC(C)C)c1Cl` (single isomer, unassigned) [Example 355, 1-(3-Chloro-6-(2-(2-hydroxypropan-2-yl)pyrimidin-5-yl)-2-methylquinolin-4-yl)-2,4-dimethylpentan-1-ol]: 1 to 10 µM; `C[C@@H](Nc1c(Cl)cnc2ccc(-c3cnc(C(C)(C)O)nc3)cc12)c1cc(C2=CCNCC2)ccc1F` [Example 338, (R)-2-(5-(3-chloro-4-((1-(2-fluoro-5-(1,2,3,6-tetrahydropyridin-4-yl)phenyl)ethyl)amino)quinolin-6-yl)pyrimidin-2-yl)propan-2-ol]: less than 1 µM. The same measure, in the same setting: under `CC(=O)NC(C)(C)c1ccc(-c2ccc3ncc(Cl)c(NC(C)c4ccccc4F)c3c2)cc1` (centres unmarked) [Example 592, N-(2-(4-(3-chloro-4-((1-(2-fluorophenyl)ethyl)amino)quinolin-6-yl)phenyl)propan-2-yl)acetamide] stands 1 to 10 µM; under `CC(Nc1c(Cl)cnc2cc(F)c(-c3cnc(C(O)CN4CCOCC4)cn3)cc12)c1ccccc1F` (centres unmarked) [Example 274, 1-(5-(3-chloro-7-fluoro-4-((1-(2-fluorophenyl)ethyl)amino)quinolin-6-yl)pyrazin-2-yl)-2-morpholinoethan-1-ol], 1 to 10 µM. Same read-out and setting: next, `CCCC(C)C(N)c1c(Cl)c(C)nc2ccc(-c3cnc(C(C)(C)O)nc3)cc12` (single isomer, unassigned) [Example 358, 2-(5-(4-(1-amino-2-methylpentyl)-3-chloro-2-methylquinolin-6-yl)pyrimidin-2-yl)propan-2-ol]: 10 to 25 µM; `Cc1nc2ccc(-c3cnc(C(C)(C)O)nc3)cc2c(N[C@H](C)c2cc(N3CCCC3=O)ccc2F)c1Cl` [Example 361, (R)-1-(3-(1-((3-chloro-6-(2-(2-hydroxypropan-2-yl)pyrimidin-5-yl)-2-methylquinolin-4-yl)amino)ethyl)-4-fluorophenyl)pyrrolidin-2-one]: less than 1 µM. Consider `C[C@@H](Nc1c(Cl)cnc2cc(F)c(-c3cnc(N4CCN(CC(=O)NCC(=O)O)CC4)nc3)cc12)c1ccccc1F` [Example 304, (R)-(2-(4-(5-(3-chloro-7-fluoro-4-((1-(2-fluorophenyl)ethyl)amino)quinolin-6-yl)pyrimidin-2-yl)piperazin-1-yl)acetyl)glycine], for which the concentration for half-maximal inhibition (IC50) was less than 1 µM. On the same count and under the same terms, under `C[C@@H](Nc1c(Cl)cnc2ccccc12)c1cc(-c2cnn(C(F)F)c2)ccc1F` [Example 471, (R)-3-chloro-N-(1-(5-(1-(difluoromethyl)-1H-pyrazol-4-yl)-2-fluorophenyl)ethyl) quinolin-4-amine] stands 1 to 10 µM; under `Cc1nc2ccc(-c3cnc(N4CCN(CC(=O)O)CC4)nc3)cc2c(N[C@H](C)c2cc(C(N)=O)ccc2F)c1Cl` [Example 389, (R)-2-(4-(5-(4-((1-(5-carbamoyl-2-fluorophenyl)ethyl)amino)-3-chloro-2-methylquinolin-6-yl)pyrimidin-2-yl)piperazin-1-yl)acetic acid], less than 1 µM. On the same count and under the same terms, next, `C[C@@H](Nc1c(Cl)cnc2ccc(-c3ccncc3)cc12)c1cc(-c2cncnc2)ccc1F` [Example 540, (R)-3-chloro-N-(1-(2-fluoro-5-(pyrimidin-5-yl)phenyl)ethyl)-6-(pyridin-4-yl)quinolin-4-amine]: less than 1 µM. As for `C[C@@H](Nc1c(Cl)cnc2ccc(Cl)cc12)c1cc(-c2cncnc2)ccc1F` [Example 545, (R)-3,6-dichloro-N-(1-(2-fluoro-5-(pyrimidin-5-yl)phenyl)ethyl)quinolin-4-amine], the IC50 is less than 1 µM.

By IC50 is commonly meant the concentration needed to halve the response being measured.
